In US20230151025A1, “SUBSTITUTED THIAZOLOPYRIDINES, SALTS THEREOF AND THEIR USE AS HERBICIDALLY ACTIVE SUBSTANCES” (Bayer Aktiengesellschaft, priority 2020, published 2023):

How the values were obtained:
Assay type in all cases: in vivo
[1] = test system: Alopecurus myosuroides (ALOMY); assay: Herbicidal pre-emergence action (A), 1280 g/ha; conditions: visual grading after ca. 3 weeks vs untreated controls, 100% = plants have died off, 0% = as control plants
How it was run: (§1)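 Visual grading of plant damage in percent (0% as untreated control, 100% dead) was done about 3 weeks after treatment. Compounds, as WP or EC in water with 0.5% additive, had been sprayed at 600 l/ha onto the covering soil of freshly sown sandy loam pots.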

[2] = test system: Amaranthus retroflexus (AMARE); assay: Herbicidal pre-emergence action (A), 1280 g/ha; conditions: visual grading after ca. 3 weeks vs untreated controls
How it was run: as §1

[3] = test system: Digitaria sanguinalis (DIGSA); assay: Herbicidal pre-emergence action (A), 1280 g/ha; conditions: visual grading after ca. 3 weeks vs untreated controls, 100% = plants have died off, 0% = as control plants
How it was run: as §1

[4] = test system: Echinochloa crus-galli (ECHCG); assay: Herbicidal pre-emergence action (A), 1280 g/ha; conditions: visual grading after ca. 3 weeks vs untreated controls, 100% = plants have died off, 0% = as control plants
How it was run: as §1

[5] = test system: Kochia scoparia (KCHSC; Bassia scoparia); assay: Herbicidal pre-emergence action (A), 1280 g/ha; conditions: visual grading after ca. 3 weeks vs untreated controls
How it was run: as §1

Lolium rigidum (LOLRI) [6] = assay: Herbicidal pre-emergence action (A), 1280 g/ha; conditions: visual grading after ca. 3 weeks vs untreated controls, 100% = plants have died off, 0% = as control plants
How it was run: as §1

[7] = test system: Matricaria inodora (MATIN); assay: Herbicidal pre-emergence action (A), 1280 g/ha; conditions: visual grading after ca. 3 weeks vs untreated controls
How it was run: as §1

Poa annua (POAAN) [8] = assay: Herbicidal pre-emergence action (A), 1280 g/ha; conditions: visual grading after ca. 3 weeks vs untreated controls, 100% = plants have died off, 0% = as control plants
How it was run: as §1

Setaria viridis (SETVI) [9] = assay: Herbicidal pre-emergence action (A), 1280 g/ha; conditions: visual grading after ca. 3 weeks vs untreated controls
How it was run: as §1

Stellaria media (STEME) [10] = assay: Herbicidal pre-emergence action (A), 1280 g/ha; conditions: visual grading after ca. 3 weeks vs untreated controls
How it was run: as §1

Veronica persica (VERPE) [11] = assay: Herbicidal pre-emergence action (A), 1280 g/ha; conditions: visual grading after ca. 3 weeks vs untreated controls
How it was run: as §1

[12] = test system: Abutilon theophrasti (ABUTH); assay: Herbicidal post-emergence action (B), 1280 g/ha; conditions: rated visually after about 3 weeks vs untreated controls
How it was run: (§2)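 Greenhouse-grown weeds at the one-leaf stage received a foliar spray of the formulated compound (WP or EC, 0.5% additive, 600 L/ha). Damage was scored visually after about 3 weeks on a 0–100% scale against untreated plants.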

[13] = test system: Alopecurus myosuroides (ALOMY); assay: Herbicidal post-emergence action (B), 1280 g/ha; conditions: rated visually after about 3 weeks vs untreated controls
How it was run: as §2

[14] = test system: Amaranthus retroflexus (AMARE); assay: Herbicidal post-emergence action (B), 1280 g/ha; conditions: rated visually after about 3 weeks vs untreated controls
How it was run: as §2

[15] = test system: Digitaria sanguinalis (DIGSA); assay: Herbicidal post-emergence action (B), 1280 g/ha; conditions: rated visually after about 3 weeks vs untreated controls
How it was run: as §2

[16] = test system: Echinochloa crus-galli (ECHCG); assay: Herbicidal post-emergence action (B), 1280 g/ha; conditions: rated visually after about 3 weeks vs untreated controls
How it was run: as §2

[17] = test system: Kochia scoparia (KCHSC; Bassia scoparia); assay: Herbicidal post-emergence action (B), 1280 g/ha
How it was run: as §2

Lolium rigidum (LOLRI) [18] = assay: Herbicidal post-emergence action (B), 1280 g/ha; conditions: one-leaf stage, rated after about 3 weeks vs untreated controls, 100% activity = the plants have died, 0% = like control plants
How it was run: as §2

[19] = test system: Matricaria inodora (MATIN); assay: Herbicidal post-emergence action (B), 1280 g/ha; conditions: rated visually after about 3 weeks vs untreated controls
How it was run: as §2

Poa annua (POAAN) [20] = assay: Herbicidal post-emergence action (B), 1280 g/ha; conditions: rated visually after about 3 weeks vs untreated controls
How it was run: as §2

Setaria viridis (SETVI) [21] = assay: Herbicidal post-emergence action (B), 1280 g/ha; conditions: rated visually after about 3 weeks vs untreated controls
How it was run: as §2

Stellaria media (STEME) [22] = assay: Herbicidal post-emergence action (B), 1280 g/ha
How it was run: as §2

Veronica persica (VERPE) [23] = assay: Herbicidal post-emergence action (B), 1280 g/ha
How it was run: as §2

[24] = test system: Amaranthus retroflexus (AMARE); assay: Herbicidal pre-emergence action (C), 320 g/ha; conditions: ca. 3 weeks
How it was run: (§3)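 Visual percent damage relative to untreated controls was scored about 3 weeks after treatment, where 100% means plants died off and 0% means like controls. Compounds, as WP or EC with 0.5% additive, were applied in 600 l water/ha to the soil covering sown seeds.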

[25] = test system: Echinochloa crus-galli (ECHCG); assay: Herbicidal pre-emergence action (C), 320 g/ha; conditions: ca. 3 weeks
How it was run: as §3

Lolium rigidum (LOLRI) [26] = assay: Herbicidal pre-emergence action (C), 320 g/ha; conditions: ca. 3 weeks
How it was run: as §3

Setaria viridis (SETVI) [27] = assay: Herbicidal pre-emergence action (C), 320 g/ha; conditions: ca. 3 weeks
How it was run: as §3

[28] = test system: Abutilon theophrasti (ABUTH); assay: Herbicidal pre-emergence action (A), 1280 g/ha; conditions: visual grading after ca. 3 weeks vs untreated controls, 100% = plants have died off, 0% = as control plants
How it was run: as §1

[29] = test system: Alopecurus myosuroides (ALOMY); assay: Herbicidal pre-emergence action (C), 320 g/ha; conditions: ca. 3 weeks
How it was run: as §3

Veronica persica (VERPE) [30] = assay: Herbicidal pre-emergence action (C), 320 g/ha; conditions: ca. 3 weeks
How it was run: as §3

[31] = test system: Amaranthus retroflexus (AMARE); assay: Herbicidal post-emergence action (D), 320 g/ha; conditions: ca. 3 weeks
Text: (§4) ABUTH: Abutilon theophrasti AGSTE: Agrostis tenuis ALOMY: Alopecurus myosuroides AMARE Amaranthus retroflexus DIGSA: Digitaria sanguinalis ECHCG: Echinochloa crus-galli KCHSC: Kochia scoparia LOLRI: Lolium rigidum MATIN: Matricaria inodora POAAN: Poa annua POLCO: Polygonum convolvulus SETVI: Setaria viridis STEME: Stellaria media VERPE: Veronica persica VIOTR: Viola tricolor
(§5) Seeds of mono- and dicotyledonous weed plants and crop plants were sown, in plastic or organic planting pots, in sandy loam, covered with soil and grown in a greenhouse under controlled growth conditions. 2 to 3 weeks after sowing, the test plants were sprayed in the single-leaf stage. The compounds according to the invention, formulated in form of wettable powders (WP) or as emulsifiable concentrates (EC), were sprayed onto the green plant parts as aqueous suspension or emulsion, with the addition of 0.5% of an additive, at an application rate of 600 l of water/ha (converted). The test plants were placed in the greenhouse for ca. 3 weeks under optimum growth conditions, and then the effect of the preparations was assessed visually in comparison with untreated controls (herbicidal effect in percent (%): 100% effect=plants have died off, 0% effect=as control plants).
(§6) Tables D1 to D13 below show the effects of selected compounds of the general formula (I) according to table 1 on various harmful plants and an application rate corresponding to 320 g/ha obtained by the experimental procedure mentioned above.

[32] = test system: Digitaria sanguinalis (DIGSA); assay: Herbicidal pre-emergence action (C), 320 g/ha; conditions: ca. 3 weeks
Text: Seeds of mono- and dicotyledonous weed plants and crop plants were sown, in plastic or organic planting pots, in sandy loam and covered with soil. The compounds according to the invention, formulated in the form of wettable powders (WP) or as emulsifiable concentrates (EC), were applied to the surface of the covering soil as aqueous suspension or emulsion, with the addition of 0.5% of an additive, at an application rate of 600 l of water/ha (converted).
Following treatment, the pots were placed in a greenhouse and kept under optimum growth conditions for the test plants. The visual grading of the damage to the test plants was carried out after ca. 3 weeks in comparison to untreated controls (herbicidal effect in percent (%): 100% effect=plants have died off, 0% effect=as control plants).
Tables C1 to C13 below show the effects of selected compounds of the general formula (I) according to table 1 on various harmful plants and an application rate corresponding to 320 g/ha obtained by the experimental procedure mentioned above.

[33] = test system: Alopecurus myosuroides (ALOMY); assay: Herbicidal post-emergence action (D), 320 g/ha; conditions: ca. 3 weeks
Text: as §4, §5, §6

Veronica persica (VERPE) [34] = assay: Herbicidal post-emergence action (D), 320 g/ha; conditions: ca. 3 weeks
Text: as §4, §5, §6

SMILES	ALOMY, herbicidal effect in percent (%) [1] [%]	herbicidal effect AMARE [2] [%]	DIGSA, herbicidal effect in percent (%) [3] [%]	ECHCG, herbicidal effect in percent (%) [4] [%]	herbicidal effect KCHSC [5] [%]	LOLRI, herbicidal effect in percent (%) (Lolium rigidum (LOLRI) [6])	herbicidal effect MATIN [7] [%]	POAAN, herbicidal effect in percent (%) (Poa annua (POAAN) [8])	herbicidal effect SETVI (Setaria viridis (SETVI) [9]) [%]	herbicidal effect STEME (Stellaria media (STEME) [10]) [%]	herbicidal effect VERPE (Veronica persica (VERPE) [11]) [%]	herbicidal activity ABUTH [12] [%]	herbicidal activity ALOMY [13] [%]	herbicidal activity AMARE [14] [%]	herbicidal activity ECHCG [16] [%]	herbicidal effect KCHSC [17] [%]	LOLRI, activity rated visually (%) (Lolium rigidum (LOLRI) [18])	herbicidal activity POAAN (Poa annua (POAAN) [20]) [%]	herbicidal activity SETVI (Setaria viridis (SETVI) [21]) [%]	herbicidal effect STEME (Stellaria media (STEME) [22]) [%]	also measured
Cc1ccsc1-c1nc2ncsc2cc1Br [Example I-132]	100	100	100	100	100	100	90	100	100	90	100	90	100	90	100	90	100	90	90	100	herbicidal activity DIGSA [15]: 90%; herbicidal activity MATIN [19]: 90%; herbicidal effect VERPE (Veronica persica (VERPE) [23]): 100%; herbicidal effect AMARE [24]: 90%; herbicidal effect ECHCG [25]: 100%; herbicidal effect LOLRI (Lolium rigidum (LOLRI) [26]): 100%; herbicidal effect SETVI (Setaria viridis (SETVI) [27]): 100%
Cc1ccccc1-c1ccc2scnc2n1 [Example I-105]	–	90	100	100	100	100	100	100	100	100	–	90	–	100	100	–	100	100	90	100	ABUTH, herbicidal effect in percent (%) [28]: 90%; herbicidal effect ECHCG [25]: 90%
Fc1cccc(-c2nc3ncsc3cc2Cl)c1 [Example I-068]	100	90	100	100	100	100	–	100	100	100	90	90	90	90	–	100	90	100	–	90	herbicidal activity DIGSA [15]: 100%; herbicidal effect VERPE (Veronica persica (VERPE) [23]): 100%; herbicidal effect ALOMY [29]: 100%; herbicidal effect AMARE [24]: 90%; herbicidal effect SETVI (Setaria viridis (SETVI) [27]): 100%; herbicidal effect VERPE (Veronica persica (VERPE) [30]): 80%; herbicidal effect AMARE [31]: 90%
Cc1cscc1-c1ccc2scnc2n1 [Example I-134]	90	–	–	–	–	100	90	90	100	100	–	–	–	90	–	–	90	90	–	–	–
Clc1ccccc1-c1nc2ncsc2cc1Cl [Example I-069]	100	–	100	100	90	90	90	100	100	90	90	–	100	90	100	90	90	100	90	100	herbicidal effect VERPE (Veronica persica (VERPE) [23]): 100%; herbicidal effect ALOMY [29]: 100%; herbicidal effect AMARE [24]: 90%; herbicidal effect ECHCG [25]: 100%; herbicidal effect LOLRI (Lolium rigidum (LOLRI) [26]): 100%; herbicidal effect SETVI (Setaria viridis (SETVI) [27]): 100%; herbicidal effect VERPE (Veronica persica (VERPE) [30]): 90%; herbicidal effect DIGSA [32]: 100%; herbicidal effect ALOMY [33]: 90%; herbicidal effect AMARE [31]: 80%; herbicidal effect VERPE (Veronica persica (VERPE) [34]): 90%
